Measured values taken from patent US20080200461A1, “MODULATORS OF ACETYL-COENZYME A CARBOXYLASE AND METHODS OF USE THEREOF” (Cropsolution, Inc., priority 2007, published 2008).
Like-named read-outs stand apart in the source and are kept apart here.

Experiments:
Botrytis cinerea = assay: Fungicidal activity, microtiter plate agar growth assay; format: cell-based; settings: read-out: In vivo IC50 B. cinerea
Stagonospora nodorum = assay: as above; format: cell-based; settings: Parastagonospora nodorum, read-out: In vivo IC50 S. nodorum
Ustilago maydis ACC = Ustilago maydis ACC (Mycosarcoma maydis, UniProt A0A0D1DYD5); assay: biochemical; format: biochemical
Phytophthora infestans = assay: microbe, parasite or virus in culture; format: cell-based; settings: read-out: In vivo IC50 P. infestens
Septoria tritici = assay: Fungicidal activity, microtiter plate agar growth assay; format: cell-based; settings: Zymoseptoria tritici, read-out: In vivo IC50 S. tritici
yeast wt BC domain = yeast wt BC domain (Saccharomyces cerevisiae, UniProt Q00955); assay: Tryptophan fluorescence binding assay; settings: for EC50: protein concentration = 200 nM
Protocol: The soraphen binding pocket contains a tryptophan residue. Thus, tryptophan fluorescence may be used to directly monitor binding of a ligand to this site. […] We conducted a similar assay in a 96-well format. Briefly, 200 nM protein in 100 mM Tris pH 8 containing 100 mM NaCl and 0.01% Tween 20 (v/v) was incubated in the presence of various amounts of test compounds dissolved in DMSO (1% v/v final concentration). Tryptophan fluorescence at […] was measured in a Pherastar plate reader (BMG Labtech) using 280 nm excitation.

Ustilago maydis K53R ACC = Ustilago maydis K53R ACC (Mycosarcoma maydis, UniProt A0A0D1DYD5, K53R); assay: biochemical; format: biochemical; settings: K53R mutation that confers resistance to soraphen
rat liver ACC [1] = target: T1, rat liver ACC (Rattus norvegicus, UniProt P11497); assay: Rat liver ACC activity, [14C]bicarbonate incorporation; format: biochemical
Description: (§1) To test the effect of compounds against mammalian ACC both human and rat enzyme preparations were employed. ACC was purified from rat liver according to published protocols (Rubink and Winder, J Appl Physiol 98, 1221-1227 (2005); Trumble et al., Eur J Biochem 231, 192-198 (1995)). Rat liver contains both ACC1 and ACC2 in a ˜85:15 ratio, respectively (Harwood et al., J Biol Chem 278, 37099-37111 (2003)).

hACC1 = target: T2, hACC1 (Homo sapiens, UniProt Q13085); assay: Recombinant human ACC1 activity, [14C]bicarbonate incorporation; format: biochemical; settings: Table II; read-out: Enzyme Activity IC50 Human ACC1
T2 construct: we cloned full-length cDNAs for both the human isoforms (hACC1 and hACC2); His tag (from pET30a) (C); made in house; host or cells: sf9 insect cells (baculovirus)

hACC2 = target: T3, hACC2 (Homo sapiens, UniProt O00763); assay: Recombinant human ACC2 activity, [14C]bicarbonate incorporation; format: biochemical; settings: Table II; read-out: Enzyme Activity IC50 Human ACC2
T3 construct: delete amino acids 1-148 and add Met-Gly in front of Lys149 in the final product; His tag (from pET30a) (C); made in house; host or cells: sf9 insect cells (baculovirus)

yeast BC domain = yeast BC domain (Saccharomyces cerevisiae, UniProt Q00955); settings: cited from earlier work
rat liver ACC [2] = target: T1, rat liver ACC; assay: FP saturation binding assay
Description: as §1

bacterial BC subunits = settings: literature; cited from earlier work
[3] = target: BC domain of eukaryotic ACCs; settings: literature; cited from earlier work
[4] = fungal growth on agar, 20° C., 3-5 days
[5] = Table I, read-out: In vitro IC50 U. maydis ACC activity
[6] = Table II, enzyme concentration 50 nM, read-out: Enzyme Activity IC50 U. maydis ACC
[7] = Table II, enzyme concentration 25 nM, ND = none detected, read-out: Enzyme Activity IC50 Rat liver ACC

Sequence of Ustilago maydis K53R ACC (A0A0D1DYD5 entry or part of it K53R): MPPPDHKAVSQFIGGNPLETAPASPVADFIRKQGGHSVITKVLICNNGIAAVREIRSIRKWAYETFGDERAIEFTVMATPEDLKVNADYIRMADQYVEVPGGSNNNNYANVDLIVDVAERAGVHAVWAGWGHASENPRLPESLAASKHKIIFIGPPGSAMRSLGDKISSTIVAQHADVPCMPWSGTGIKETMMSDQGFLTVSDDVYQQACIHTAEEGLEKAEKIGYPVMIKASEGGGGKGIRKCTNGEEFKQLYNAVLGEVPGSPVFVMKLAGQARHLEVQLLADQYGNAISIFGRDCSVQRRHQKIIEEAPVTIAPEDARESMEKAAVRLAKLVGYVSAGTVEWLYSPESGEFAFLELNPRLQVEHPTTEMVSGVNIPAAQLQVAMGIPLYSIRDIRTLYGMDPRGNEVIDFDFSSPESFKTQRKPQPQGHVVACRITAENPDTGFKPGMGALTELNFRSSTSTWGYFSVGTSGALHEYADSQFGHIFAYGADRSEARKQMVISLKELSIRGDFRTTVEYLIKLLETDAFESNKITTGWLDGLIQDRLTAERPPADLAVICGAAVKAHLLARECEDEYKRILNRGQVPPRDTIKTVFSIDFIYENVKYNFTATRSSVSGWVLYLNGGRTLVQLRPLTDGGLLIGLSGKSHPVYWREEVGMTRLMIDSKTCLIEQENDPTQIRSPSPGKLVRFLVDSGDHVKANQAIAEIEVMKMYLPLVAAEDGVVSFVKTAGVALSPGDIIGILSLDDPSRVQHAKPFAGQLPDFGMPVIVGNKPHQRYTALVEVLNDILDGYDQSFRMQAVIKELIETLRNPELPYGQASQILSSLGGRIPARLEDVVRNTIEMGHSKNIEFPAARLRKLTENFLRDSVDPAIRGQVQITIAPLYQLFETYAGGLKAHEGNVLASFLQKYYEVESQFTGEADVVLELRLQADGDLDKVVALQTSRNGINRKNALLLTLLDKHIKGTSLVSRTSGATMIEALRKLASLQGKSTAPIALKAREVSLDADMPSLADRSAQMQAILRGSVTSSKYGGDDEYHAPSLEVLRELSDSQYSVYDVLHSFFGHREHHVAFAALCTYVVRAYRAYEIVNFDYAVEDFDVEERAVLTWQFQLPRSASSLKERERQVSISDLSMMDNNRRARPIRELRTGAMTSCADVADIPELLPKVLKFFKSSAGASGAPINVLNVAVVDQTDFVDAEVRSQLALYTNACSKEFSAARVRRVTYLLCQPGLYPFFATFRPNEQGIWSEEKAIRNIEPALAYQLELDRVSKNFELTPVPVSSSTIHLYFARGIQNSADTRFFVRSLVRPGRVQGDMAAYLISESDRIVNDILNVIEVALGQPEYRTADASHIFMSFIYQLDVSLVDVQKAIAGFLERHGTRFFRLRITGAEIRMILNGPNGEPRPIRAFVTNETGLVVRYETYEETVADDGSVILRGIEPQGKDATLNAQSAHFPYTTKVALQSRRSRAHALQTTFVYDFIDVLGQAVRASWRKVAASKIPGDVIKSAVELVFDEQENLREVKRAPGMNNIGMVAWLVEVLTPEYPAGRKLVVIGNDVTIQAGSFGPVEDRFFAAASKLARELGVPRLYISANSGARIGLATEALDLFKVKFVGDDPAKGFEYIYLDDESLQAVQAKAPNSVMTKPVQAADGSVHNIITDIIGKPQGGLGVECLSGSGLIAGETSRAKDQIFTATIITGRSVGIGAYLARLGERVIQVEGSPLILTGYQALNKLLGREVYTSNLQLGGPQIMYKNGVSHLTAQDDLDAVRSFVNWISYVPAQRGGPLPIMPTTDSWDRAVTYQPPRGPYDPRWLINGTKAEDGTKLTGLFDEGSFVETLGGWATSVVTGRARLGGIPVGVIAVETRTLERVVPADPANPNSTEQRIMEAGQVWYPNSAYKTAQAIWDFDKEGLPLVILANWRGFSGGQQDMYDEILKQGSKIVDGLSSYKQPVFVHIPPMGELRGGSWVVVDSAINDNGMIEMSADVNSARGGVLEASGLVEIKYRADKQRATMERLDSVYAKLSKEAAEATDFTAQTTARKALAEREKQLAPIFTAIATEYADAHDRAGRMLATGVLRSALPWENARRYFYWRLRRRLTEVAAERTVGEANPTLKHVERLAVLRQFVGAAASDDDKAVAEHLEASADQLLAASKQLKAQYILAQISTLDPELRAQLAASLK
Sequence of yeast wt BC domain (Q00955 58-567): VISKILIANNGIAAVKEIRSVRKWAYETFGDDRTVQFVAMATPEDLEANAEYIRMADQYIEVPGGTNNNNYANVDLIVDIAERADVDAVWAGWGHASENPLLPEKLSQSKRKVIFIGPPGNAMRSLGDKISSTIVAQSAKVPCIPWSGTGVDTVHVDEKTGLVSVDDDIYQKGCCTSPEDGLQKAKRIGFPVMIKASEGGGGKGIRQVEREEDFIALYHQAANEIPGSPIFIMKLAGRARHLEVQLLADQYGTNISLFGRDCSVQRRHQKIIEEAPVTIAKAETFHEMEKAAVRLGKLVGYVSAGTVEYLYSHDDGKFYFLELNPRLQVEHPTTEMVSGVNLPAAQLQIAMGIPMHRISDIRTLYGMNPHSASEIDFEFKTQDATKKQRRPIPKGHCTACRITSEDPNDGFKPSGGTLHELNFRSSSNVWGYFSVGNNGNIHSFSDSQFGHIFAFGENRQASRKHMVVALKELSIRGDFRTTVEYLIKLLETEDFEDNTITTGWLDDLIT
Sequence of Ustilago maydis ACC (A0A0D1DYD5 entry or part of it): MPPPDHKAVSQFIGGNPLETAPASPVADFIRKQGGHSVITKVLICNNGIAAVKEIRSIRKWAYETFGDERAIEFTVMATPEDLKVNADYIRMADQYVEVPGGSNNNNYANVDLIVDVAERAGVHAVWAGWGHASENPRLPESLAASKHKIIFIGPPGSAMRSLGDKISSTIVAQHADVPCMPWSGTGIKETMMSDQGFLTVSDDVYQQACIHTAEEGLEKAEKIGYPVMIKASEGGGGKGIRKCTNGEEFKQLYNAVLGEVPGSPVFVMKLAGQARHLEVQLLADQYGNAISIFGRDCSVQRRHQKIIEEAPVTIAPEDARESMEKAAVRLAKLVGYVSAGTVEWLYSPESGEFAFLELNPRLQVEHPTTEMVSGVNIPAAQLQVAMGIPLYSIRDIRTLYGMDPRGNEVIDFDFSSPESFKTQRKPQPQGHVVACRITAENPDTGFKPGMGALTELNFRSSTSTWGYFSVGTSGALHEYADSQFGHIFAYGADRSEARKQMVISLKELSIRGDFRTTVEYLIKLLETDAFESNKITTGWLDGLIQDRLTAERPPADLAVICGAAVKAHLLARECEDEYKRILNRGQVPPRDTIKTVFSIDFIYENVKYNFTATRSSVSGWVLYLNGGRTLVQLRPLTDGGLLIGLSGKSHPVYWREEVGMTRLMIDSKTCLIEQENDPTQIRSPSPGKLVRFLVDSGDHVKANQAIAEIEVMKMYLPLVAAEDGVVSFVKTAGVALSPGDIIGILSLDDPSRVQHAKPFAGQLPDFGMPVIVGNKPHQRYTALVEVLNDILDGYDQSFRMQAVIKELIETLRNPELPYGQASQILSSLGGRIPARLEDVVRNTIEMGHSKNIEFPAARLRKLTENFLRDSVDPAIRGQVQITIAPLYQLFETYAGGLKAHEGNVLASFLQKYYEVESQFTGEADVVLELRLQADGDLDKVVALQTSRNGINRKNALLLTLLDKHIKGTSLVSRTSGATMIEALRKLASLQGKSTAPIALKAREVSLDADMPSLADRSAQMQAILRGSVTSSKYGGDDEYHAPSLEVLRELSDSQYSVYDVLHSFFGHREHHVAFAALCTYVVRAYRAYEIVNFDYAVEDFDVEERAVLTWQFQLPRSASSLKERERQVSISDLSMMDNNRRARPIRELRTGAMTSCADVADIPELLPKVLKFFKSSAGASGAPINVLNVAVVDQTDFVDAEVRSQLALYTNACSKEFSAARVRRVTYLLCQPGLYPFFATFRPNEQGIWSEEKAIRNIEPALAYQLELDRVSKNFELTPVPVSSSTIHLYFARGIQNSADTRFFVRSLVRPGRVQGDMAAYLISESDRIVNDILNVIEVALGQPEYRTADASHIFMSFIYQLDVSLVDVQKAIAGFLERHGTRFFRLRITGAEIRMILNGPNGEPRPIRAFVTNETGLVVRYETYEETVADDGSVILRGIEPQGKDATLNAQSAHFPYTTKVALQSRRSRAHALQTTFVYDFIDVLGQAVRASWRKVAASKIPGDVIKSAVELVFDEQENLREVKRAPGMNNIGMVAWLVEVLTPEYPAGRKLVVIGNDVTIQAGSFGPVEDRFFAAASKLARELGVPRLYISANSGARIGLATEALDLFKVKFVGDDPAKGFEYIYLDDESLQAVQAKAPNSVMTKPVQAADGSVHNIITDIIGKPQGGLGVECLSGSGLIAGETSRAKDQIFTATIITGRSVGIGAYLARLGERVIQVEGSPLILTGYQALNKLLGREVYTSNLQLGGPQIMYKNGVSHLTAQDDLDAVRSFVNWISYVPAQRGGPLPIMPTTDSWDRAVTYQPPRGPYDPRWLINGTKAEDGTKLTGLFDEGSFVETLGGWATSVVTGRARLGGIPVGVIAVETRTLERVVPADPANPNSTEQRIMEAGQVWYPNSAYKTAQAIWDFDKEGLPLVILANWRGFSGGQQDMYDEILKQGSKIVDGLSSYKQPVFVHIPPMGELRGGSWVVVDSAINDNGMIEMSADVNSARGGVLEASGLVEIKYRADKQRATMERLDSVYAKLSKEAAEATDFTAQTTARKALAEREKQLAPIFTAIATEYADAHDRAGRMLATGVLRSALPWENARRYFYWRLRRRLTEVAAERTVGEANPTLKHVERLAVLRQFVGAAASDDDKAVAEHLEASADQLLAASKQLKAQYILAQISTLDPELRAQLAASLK

C[N+]1(Cc2ccc(Cl)c(Cl)c2)CCN(CCCn2c(SCc3ccc(Cl)c(Cl)c3)nc3ccc(Br)cc3c2=O)CC1 [Compound 7]
IC50 (Botrytis cinerea; [4]): 4.3 µM
IC50 (Stagonospora nodorum; [4]): 8 µM
IC50 (Ustilago maydis ACC; [5]): 17 µM
IC50 (Phytophthora infestans): 200 µM
IC50 (Septoria tritici; [4]): 4.8 µM

COc1cc2c(=O)n(CCCC[N+](C)(C)Cc3ccc(Br)cc3)c(=S)n(Cc3ccc(Br)cc3)c2c(OC)c1OC [Compound 15]
IC50 (Botrytis cinerea; [4]): 2 µM
IC50 (Stagonospora nodorum; [4]): 8 µM
IC50 (Ustilago maydis ACC; [5]): 16 µM
IC50 (Phytophthora infestans): 18 µM
IC50 (Septoria tritici; [4]): 4 µM

Cc1cc(C)cc(CN(CCCC[N+](C)(C)Cc2cc(C)cc(C)c2)Cc2cc(C)cc(C)c2)c1 [Compound 19]
IC50 (Botrytis cinerea; [4]): 7 µM
IC50 (Stagonospora nodorum; [4]): 64 µM
IC50 (Ustilago maydis ACC; [5]): 21 µM
IC50 (Phytophthora infestans): 25 µM
IC50 (Septoria tritici; [4]): 22 µM

COc1cc2c(=O)n(CCCC[N+](C)(CCC[N+](C)(C)Cc3cc(C)cc(C)c3)Cc3cc(C)cc(C)c3)c(SCc3cc(C)cc(C)c3)nc2c(OC)c1OC (centres unmarked) [Compound 22]
IC50 (Botrytis cinerea; [4]): 6.7 µM
IC50 (Stagonospora nodorum; [4]): 4.6 µM
IC50 (Ustilago maydis ACC; [5]): 12 µM
IC50 (Phytophthora infestans): 35 µM
IC50 (Septoria tritici; [4]): 4.4 µM

Cc1cc(C)cc(CN(CC[N+](C)(C)Cc2cc(C)cc(C)c2)Cc2cc(C)cc(C)c2)c1 [Compound 25]
IC50 (Botrytis cinerea; [4]): 1.4 µM
IC50 (Stagonospora nodorum; [4]): 5.8 µM
IC50 (Ustilago maydis ACC; [5]): 42 µM
IC50 (Phytophthora infestans): 18.2 µM
IC50 (Septoria tritici; [4]): 10 µM

Cc1cc(C)cc(CN(CCC[N+](C)(C)Cc2cc(C)cc(C)c2)Cc2cc(C)cc(C)c2)c1 [Compound 26]
IC50 (Botrytis cinerea; [4]): 1 µM
IC50 (Stagonospora nodorum; [4]): 5 µM
IC50 (Ustilago maydis ACC; [5]): 39 µM
IC50 (Phytophthora infestans): 23.5 µM
IC50 (Septoria tritici; [4]): 6 µM

CC[N+](CC)(CCCCN(Cc1cc(C)cc(C)c1)Cc1cc(C)cc(C)c1)Cc1cc(C)cc(C)c1.[Br-] [Compound 28, Diethyl(3,5-dimethylbenzyl)[bis-(3,5-dimethylbenzyl)aminobutyl]ammonium formate]
IC50 (Botrytis cinerea): 1.8 µM
IC50 (Stagonospora nodorum): 7.2 µM
IC50 (Ustilago maydis ACC; Enzyme activity IC50 U. maydis wt ACC): 11 µM
IC50 (Ustilago maydis ACC; In vitro IC50 U. maydis ACC activity): 17 µM
Effect on tryptophan fluorescence of yeast BC domain (yeast wt BC domain): quenched
EC50 (yeast wt BC domain): 11 µM
Effect of K53R mutation on inhibition of ACC by compound (Ustilago maydis K53R ACC): confers resistance to inhibition
IC50 (Phytophthora infestans): 21.5 µM
IC50 (Septoria tritici): 11 µM

Cc1cc(C)cc(CN(CCCC[N+](C)(C)Cc2cc(C)cc(C)c2)S(=O)(=O)c2ccc(Br)cc2)c1 [Compound 61]
IC50 (Ustilago maydis ACC; [6]): 9 µM

Cc1cc(C)cc(CN(CCCC[N+](C)(C)Cc2cc(C)cc(C)c2)C(=S)Nc2c(F)cccc2F)c1 [Compound 74]
IC50 (Ustilago maydis ACC; [6]): 9 µM

CC[N+](CC)(CCCCN(Cc1cc(C)cc(C)c1)C(=O)c1cc(C)cc(C)c1)Cc1cc(C)cc(C)c1 [Compound 76]
IC50 (Ustilago maydis ACC; [6]): 30 µM

CC[N+](CC)(CCCCN(Cc1cc(C)cc(C)c1)S(=O)(=O)c1ccc2ccccc2c1)Cc1cc(C)cc(C)c1 [Compound 85, Diethyl(3,5-dimethylbenzyl)[N-(3,5-dimethylbenzyl)-2-naphthalenesulfonamidobutyl]ammonium bromide]
IC50 (Ustilago maydis ACC; [6]): 15 µM
IC50 (rat liver ACC [1]; [7]): 43 µM

CC[N+](CC)(CCCCN(Cc1cc(C)cc(C)c1)C(=O)c1ccc2ccccc2c1)Cc1cc(C)cc(C)c1 [Compound 133, Diethyl(3,5-dimethylbenzyl)[N-(3,5-dimethylbenzyl)-2-naphthalenecarboxamidobutyl]ammonium bromide]
IC50 (Ustilago maydis ACC; [6]): 3 µM

CC[N+](CC)(CCCCN(Cc1ccc2c(c1)OCCO2)S(=O)(=O)c1ccc2ccccc2c1)Cc1cc(C)cc(C)c1.[Br-] [Compound 184]
Effect of K53R mutation on inhibition of ACC by compound (Ustilago maydis K53R ACC): confers resistance to inhibition

CC[N+](CC)(CCCCN(Cc1ccc2ccccc2c1)S(=O)(=O)c1cccc(Cl)c1Cl)Cc1cc(C)cc(C)c1 [Compound 237]
IC50 (Ustilago maydis ACC; [6]): 1.4 µM
IC50 (hACC1): 12 µM
IC50 (hACC2): 50 µM

CC[N+](CC)(CCCCN(Cc1ccc2ccccc2c1)C(=O)c1cc2cccc(OC)c2cc1OC)Cc1cc(C)cc(C)c1 [Compound 260]
IC50 (Ustilago maydis ACC; [6]): 1.4 µM
IC50 (hACC1): 2.8 µM
IC50 (hACC2): 11 µM

CC[N+](CC)(CCCCN(Cc1ccc2ccccc2c1)C(=O)c1sc2cccc(Cl)c2c1Cl)Cc1cc(C)cc(C)c1.[Br-] [Compound 322]
IC50 (Ustilago maydis ACC; [6]): 0.04 µM
IC50 (hACC1): 0.25 µM
IC50 (hACC2): 1 µM
Effect of K53R mutation on inhibition of ACC by compound (Ustilago maydis K53R ACC): confers resistance to inhibition

CC[N+](CC)(CCCCN(Cc1ccc2ccccc2c1)C(=O)c1sc2c(Cl)c(OC)ccc2c1Cl)Cc1cc(C)cc(C)c1 [Compound 326]
IC50 (Ustilago maydis ACC; [6]): 0.18 µM
IC50 (hACC1): 0.15 µM
IC50 (hACC2): 1.5 µM

CO[C@H]1CCCC[C@@H](c2ccccc2)OC(=O)[C@@H](C)[C@@]2(O)O[C@H]([C@@H](C)[C@H](O)[C@H]2OC)[C@@H](C)/C=C/[C@H]1OC [soraphen A, Soraphen A, reference compound]
IC50 (Ustilago maydis ACC; [6]): 0.017 µM
IC50 (Ustilago maydis ACC; Table III, enzyme concentration = 50 nM, read-out: Enzyme activity IC50 U. maydis wt ACC): 0.017 µM
IC50 (Ustilago maydis ACC; read-out: IC50 inhibition of fungal ACC): 0.017 µM
IC50 (rat liver ACC [1]; tight binding conditions, nominal enzyme concentration 25 nM, read-out: IC50 rat liver ACC activity): 0.014 µM
IC50 (hACC1): 0.011 µM
Kd (yeast BC domain): 0.001 µM
Kd (rat liver ACC [2]): 0.0032 µM
EC50 (yeast wt BC domain): 0.09 µM
Effect on bacterial BC subunits (bacterial BC subunits): no effect
IC50 (hACC2): 0.0027 µM
Kd [3]: ~0.001 µM

Diethyl(3,5-dimethylbenzyl)[N-(2-naphthylmethyl)-2-naphthalenesulfonamidobutyl]ammonium bromide [Compound 200]
IC50 (Ustilago maydis ACC; [6]): 0.56 µM
IC50 (rat liver ACC [1]; [7]): 11 µM
IC50 (hACC1): 7.6 µM
IC50 (hACC2): 22 µM
